What was measured:
[1] = Intraperitoneal glucose tolerance test (IPGTT) in grafted mice fed HFD; type: in vivo, mouse
Method: For glucose tolerance testing, an intraperitoneal glucose tolerance test (IPGTT) was performed on mice fed an HFD for 10 weeks. Mice were fasted for 6 h before the test. Animals were injected (1 g/kg glucose/body weight, i.p.) with glucose dissolved in saline, and blood glucose was measured at 0, 10, 20, 30, 60 and 90 minutes using glucose test strips and glucose meters.
IPGTT was performed to examine glucose homeostasis.
For glucose and insulin tolerance tests, an intraperitoneal glucose tolerance test (IPGTT) was performed on mice fed an HFD for 10 weeks. Mice were fasted for 6 h before the test. Animals were injected (1 g/kg glucose/body weight, i.p.) with glucose dissolved in saline, and blood glucose was measured at 0, 30, 60 and 90 min using glucose test strips and glucose meters. An intraperitoneal insulin tolerance test was carried out 1 week after IPGTT. Mice were fasted for 4 h and injected (2 U/kg, i.p.) with insulin purchased from Sigma (St. Louis, MO). Blood glucose levels were determined thereafter at 0, 30, 60 and 90 min.
To examine glucose homeostasis, IPGTT (intraperitoneal glucose tolerance test) and ITT (insulin tolerance test) were performed.

epidermal stem cells = assay: Anchorage-independent growth in soft agar; settings: SCC cancer initiating cells as positive control
[2] = tested on: human epidermal keratinocytes; assay: Cell proliferation and differentiation of engineered human epidermal cells in vitro; type: cell-based
Method: Primary human neonatal epidermal keratinocytes were obtained from Thermo Fischer® (C0015C), and cultured with Epilife® medium (Thermo Fischer, M-EPICF-500) with manufacturer's recommended procedures. Calcium shift was performed to induce differentiation of primary keratinocytes by increasing the calcium concentration in culture media to 1.5 mM.
Propidium iodide (PI) staining followed by flow cytometry were used to determine the effect of cell cycle profiles. Mouse and human epidermal cells were cultured in two 6 cm cell culture dish for 24 hours, respectively. Cells were trypsinized, and 1×10^5 cells from each dish were collected, followed by one PBS wash. […] After staining, the cells were analyzed immediately using flow cytometer BD FACSCanto™ II (BD Biosciences, San Jose, CA) with an excitation wavelength at 488 nm and emission at 585 nm. DNA content and histograms of cell cycle distribution were analyzed using FlowJo™ software, version 10 (FLOWJO LLC, OR).
Western blotting was performed as described previously (Blanpain et al.). […] Visualization and quantification was carried out with the LI-COR Odyssey® scanner and software (LI-COR Biosciences).
Propidium iodide (PI) staining followed by flow cytometry were used to determine the effect of cell cycle profiles. […] DNA content and histograms of cell cycle distribution were analyzed using FlowJo™ software, version 10 (FLOWJO LLC, OR). […]

With GLP1 the glycemic excursion ([1]; GLP1/GGBP grafts, blood glucose and GGBP imaging) was “significantly reduced glycemic excursion”, the glycemic excursion ([1]; HFD, doxycycline-induced GLP1) was “significantly reduced glycemic excursion” and the “anchorage-independent growth (tumorigenicity)” value (epidermal stem cells) was “cannot grow in suspension”. The “effect of expression on cell proliferation / differentiation in vitro” value [2] was “did not significantly change cell proliferation”.

Source: patent US20230392126A1, “TISSUE ORGANOIDS” (priority 2016, published 2023)
